# From patent publication US20260262643A1, “HERBICIDAL BENZOXAZINES” (FMC CORPORATION, priority 2022, published 2026)
# Key:
# green foxtail [1] = assay: Test C preemergence; format: in vivo, Setaria viridis
# Method in brief: (§1)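 Soil-applied (pre) and foliar (post, 1–2 leaf, 2–10 cm) sprays; surfactant-containing non-phytotoxic solvent vehicle; loam/sand substrate. Readout: visual % control at 10 d, greenhouse, versus untreated.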
# pigweed, palmer [2] = assay: Test C postemergence; format: in vivo, Amaranthus palmeri; conditions: 10 days, 0 to 100 scale (0 no effect, 100 complete control)
# Method in brief: as §1
# barnyardgrass [3] = assay: Test D flooded paddy test; format: in vivo, Echinochloa crus-galli; conditions: 250 g ai/ha, applied to paddy water, visual rating after 13 to 14 days, scale 0 to 100 (0 no effect, 100 complete control)
# Method in brief: (§2)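 Rating scale 0–100 (0 no effect, 100 complete control), visual, versus controls. Readout at 13–14 days after in-water application to 2-leaf plants in pots flooded 3 cm deep.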
# horseweed = assay: Test C postemergence; format: in vivo, Erigeron canadensis; conditions: 10 days, 0 to 100 scale (0 no effect, 100 complete control)
# Method in brief: as §1
# corn [4] = assay: Test C preemergence; format: in vivo, Zea mays
# Method in brief: as §1
# wheat [5] = assay: Test C preemergence; format: in vivo, Triticum aestivum
# Method in brief: as §1
# galium = assay: Test C postemergence; format: in vivo, Galium aparine; conditions: 10 days, 0 to 100 scale (0 no effect, 100 complete control)
# Method in brief: as §1
# kochia [6] = assay: Test C postemergence; format: in vivo, Bassia scoparia; conditions: 10 days, 0 to 100 scale (0 no effect, 100 complete control)
# Method in brief: as §1
# rice = assay: Test D flooded paddy test; format: in vivo, Oryza sativa; conditions: 250 g ai/ha, applied to paddy water, visual rating after 13 to 14 days, scale 0 to 100 (0 no effect, 100 complete control)
# Method in brief: as §2
# barnyardgrass [7] = assay: Test C preemergence; format: in vivo, Echinochloa crusgalli
# Method in brief: as §1
# blackgrass [8] = assay: Test C preemergence; format: in vivo, Alopecurus myosuroides
# Method in brief: as §1
# green foxtail [9] = assay: Test C postemergence; format: in vivo, Setaria viridis; conditions: 10 days, 0 to 100 scale (0 no effect, 100 complete control)
# Method in brief: as §1
# ragweed [10] = assay: Test C postemergence; format: in vivo, Ambrosia artemisiifolia; conditions: 10 days, 0 to 100 scale (0 no effect, 100 complete control)
# Method in brief: as §1
# kochia [11] = assay: Test C preemergence; format: in vivo, Bassia scoparia
# Method in brief: as §1
# oat, wild [12] = assay: Test C preemergence; format: in vivo, Avena fatua
# Method in brief: as §1
# ryegrass, Italian [13] = assay: Test C postemergence; format: in vivo, Lolium multiflorum; conditions: 10 days, 0 to 100 scale (0 no effect, 100 complete control)
# Method in brief: as §1
# oat, wild [14] = assay: Test C postemergence; format: in vivo, Avena fatua; conditions: 10 days, 0 to 100 scale (0 no effect, 100 complete control)
# Method in brief: as §1
# sedge, umbrella = assay: Test D flooded paddy test; format: in vivo, Cyperus difformis; conditions: 250 g ai/ha, applied to paddy water, visual rating after 13 to 14 days, scale 0 to 100 (0 no effect, 100 complete control)
# Method in brief: as §2
# soybean [15] = assay: Test C postemergence; format: in vivo, Glycine max; conditions: 10 days, 0 to 100 scale (0 no effect, 100 complete control)
# Method in brief: as §1
# corn [16] = assay: Test C postemergence; format: in vivo, Zea mays; conditions: 10 days, 0 to 100 scale (0 no effect, 100 complete control)
# Method in brief: as §1
# blackgrass [17] = assay: Test C postemergence; format: in vivo, Alopecurus myosuroides; conditions: 10 days, 0 to 100 scale (0 no effect, 100 complete control)
# Method in brief: as §1
# ryegrass, Italian [18] = assay: Test C preemergence; format: in vivo, Lolium multiflorum
# Method in brief: as §1
# soybean [19] = assay: Test C preemergence; format: in vivo, Glycine max
# Method in brief: as §1
# barnyardgrass [20] = assay: Test C postemergence; format: in vivo, Echinochloa crusgalli; conditions: 10 days, 0 to 100 scale (0 no effect, 100 complete control)
# Method in brief: as §1
# ducksalad = assay: Test D flooded paddy test; format: in vivo, Heteranthera limosa; conditions: 250 g ai/ha, applied to paddy water, visual rating after 13 to 14 days, scale 0 to 100 (0 no effect, 100 complete control)
# Method in brief: as §2
# wheat [21] = assay: Test C postemergence; format: in vivo, Triticum aestivum; conditions: 10 days, 0 to 100 scale (0 no effect, 100 complete control)
# Method in brief: as §1
# ragweed [22] = assay: Test C preemergence; format: in vivo, Ambrosia artemisiifolia
# Method in brief: as §1
# pigweed, palmer [23] = assay: Test C preemergence; format: in vivo, Amaranthus palmeri
# Method in brief: as §1
# [24] = 500 g ai/ha, preemergence, 0 to 100 scale (0 no effect, 100 complete control)
# [25] = Preemergence, 125 g ai/ha, 0 to 100 scale, 0 no effect, 100 complete control
structure (smiles),measurement,setting,value
Cc1cccc2c1O[C@@H](C)CN2C(=O)c1cc(-n2cnc(C(C)C)n2)cc2c1CCO2 [Compound 392],"Foxtail, Green plant response rating",green foxtail [1]; [24],100
same,"Plant response rating, Foxtail, Green",green foxtail [1]; [25],100
same,"Plant response rating, Pigweed, Palmer","pigweed, palmer [2]; 500 g ai/ha, postemergence",100
same,"Plant response rating, Pigweed, Palmer","pigweed, palmer [2]; Postemergence, 125 g ai/ha",100
same,"Plant response rating, Barnyardgrass (Flood)",barnyardgrass [3],40
same,"Plant response rating, Horseweed","horseweed; 500 g ai/ha, postemergence",90
same,"Plant response rating, Horseweed","horseweed; Postemergence, 125 g ai/ha",60
same,Corn plant response rating,corn [4]; [24],70
same,"Plant response rating, Corn",corn [4]; [25],30
same,Wheat plant response rating,wheat [5]; [24],60
same,"Plant response rating, Wheat",wheat [5]; [25],20
same,"Plant response rating, Galium","galium; 500 g ai/ha, postemergence",100
same,"Plant response rating, Galium","galium; Postemergence, 125 g ai/ha",100
same,"Plant response rating, Kochia","kochia [6]; 500 g ai/ha, postemergence",90
same,"Plant response rating, Kochia","kochia [6]; Postemergence, 125 g ai/ha",90
same,"Plant response rating, Rice (Flood)",rice,0
same,Barnyardgrass plant response rating,barnyardgrass [7]; [24],100
same,"Plant response rating, Barnyardgrass",barnyardgrass [7]; [25],90
same,Blackgrass plant response rating,blackgrass [8]; [24],80
same,"Plant response rating, Blackgrass",blackgrass [8]; [25],70
same,"Plant response rating, Foxtail, Green","green foxtail [9]; 500 g ai/ha, postemergence",90
same,"Plant response rating, Foxtail, Green","green foxtail [9]; Postemergence, 125 g ai/ha",60
same,"Plant response rating, Ragweed","ragweed [10]; 500 g ai/ha, postemergence",90
same,"Plant response rating, Ragweed","ragweed [10]; Postemergence, 125 g ai/ha",90
same,Kochia plant response rating,kochia [11]; [24],90
same,"Plant response rating, Kochia",kochia [11]; [25],90
same,"Oat, Wild plant response rating","oat, wild [12]; [24]",90
same,"Plant response rating, Oat, Wild","oat, wild [12]; [25]",50
same,"Plant response rating, Ryegrass, Italian","ryegrass, Italian [13]; 500 g ai/ha, postemergence",100
same,"Plant response rating, Ryegrass, Italian","ryegrass, Italian [13]; Postemergence, 125 g ai/ha",80
same,"Plant response rating, Oat, Wild","oat, wild [14]; 500 g ai/ha, postemergence",90
same,"Plant response rating, Oat, Wild","oat, wild [14]; Postemergence, 125 g ai/ha",70
same,"Plant response rating, Sedge, Umbrella (Flood)","sedge, umbrella",65
same,"Plant response rating, Soybean","soybean [15]; 500 g ai/ha, postemergence",100
same,"Plant response rating, Soybean","soybean [15]; Postemergence, 125 g ai/ha",100
same,"Plant response rating, Corn","corn [16]; 500 g ai/ha, postemergence",80
same,"Plant response rating, Corn","corn [16]; Postemergence, 125 g ai/ha",30
same,"Plant response rating, Blackgrass","blackgrass [17]; 500 g ai/ha, postemergence",90
same,"Plant response rating, Blackgrass","blackgrass [17]; Postemergence, 125 g ai/ha",80
same,"Ryegrass, Italian plant response rating","ryegrass, Italian [18]; [24]",100
same,"Plant response rating, Ryegrass, Italian","ryegrass, Italian [18]; [25]",90
same,Soybean plant response rating,soybean [19]; [24],100
same,"Plant response rating, Soybean",soybean [19]; [25],90
same,"Plant response rating, Barnyardgrass","barnyardgrass [20]; 500 g ai/ha, postemergence",80
same,"Plant response rating, Barnyardgrass","barnyardgrass [20]; Postemergence, 125 g ai/ha",50
same,"Plant response rating, Ducksalad (Flood)",ducksalad,65
same,"Plant response rating, Wheat","wheat [21]; 500 g ai/ha, postemergence",60
same,"Plant response rating, Wheat","wheat [21]; Postemergence, 125 g ai/ha",50
same,Ragweed plant response rating,ragweed [22]; [24],80
same,"Plant response rating, Ragweed",ragweed [22]; [25],80
same,"Pigweed, Palmer plant response rating","pigweed, palmer [23]; [24]",100
same,"Plant response rating, Pigweed, Palmer","pigweed, palmer [23]; [25]",100
